Assay results from PubChem BioAssay (NCI).
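Following 48 hours of exposure in 96-well plates, responses at five concentrations were used to interpolate endpoints linearly. The concentration for full growth arrest is given as TGI.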

Legend:
Assay in all cases: NCI-60 cell line screen, 48 h
CAKI-1 renal = system: CAKI-1 renal
SF-268 CNS = system: SF-268 CNS
MDA-N = system: MDA-N
SK-MEL-2 melanoma = system: SK-MEL-2 melanoma
OVCAR-8 ovarian = system: OVCAR-8 ovarian
DU-145 prostate = system: DU-145 prostate
UACC-62 melanoma = system: UACC-62 melanoma
NCI-H226 lung = system: NCI-H226 lung
OVCAR-4 ovarian = system: OVCAR-4 ovarian
HCT-15 colon = system: HCT-15 colon
HCC-2998 colon = system: HCC-2998 colon
HCT-116 colon = system: HCT-116 colon
M14 melanoma = system: M14 melanoma
U251 CNS = system: U251 CNS
TK-10 renal = system: TK-10 renal
MOLT-4 leukemia = system: MOLT-4 leukemia
T-47D breast = system: T-47D breast
LOX IMVI melanoma = system: LOX IMVI melanoma
SK-OV-3 ovarian = system: SK-OV-3 ovarian
CCRF-CEM leukemia = system: CCRF-CEM leukemia
EKVX NSCLC = system: EKVX NSCLC
K-562 leukemia = system: K-562 leukemia
OVCAR-3 ovarian = system: OVCAR-3 ovarian
RXF 393 renal = system: RXF 393 renal
SK-MEL-28 melanoma = system: SK-MEL-28 melanoma
SK-MEL-5 melanoma = system: SK-MEL-5 melanoma
UACC-257 melanoma = system: UACC-257 melanoma
HOP-62 NSCLC = system: HOP-62 NSCLC
NCI-H522 lung = system: NCI-H522 lung
NCI-H23 lung = system: NCI-H23 lung
HT29 colon = system: HT29 colon
SN12C renal = system: SN12C renal
KM12 colon = system: KM12 colon
HOP-92 NSCLC = system: HOP-92 NSCLC
MDA-MB-231 breast = system: MDA-MB-231 breast
MDA-MB-435 = system: MDA-MB-435
COLO 205 colon = system: COLO 205 colon
UO-31 renal = system: UO-31 renal
NCI/ADR-RES ovarian = system: NCI/ADR-RES ovarian
SW-620 colon = system: SW-620 colon
HS 578T breast = system: HS 578T breast
SNB-19 CNS = system: SNB-19 CNS
PC-3 prostate = system: PC-3 prostate
IGROV1 ovarian = system: IGROV1 ovarian
HL-60(TB) leukemia = system: HL-60(TB) leukemia
NCI-H460 lung = system: NCI-H460 lung
SF-295 CNS = system: SF-295 CNS
A549 NSCLC = system: A549 NSCLC
OVCAR-5 ovarian = system: OVCAR-5 ovarian
BT-549 breast = system: BT-549 breast
MALME-3M melanoma = system: MALME-3M melanoma
786-0 renal = system: 786-0 renal
SF-539 CNS = system: SF-539 CNS
A498 renal = system: A498 renal
RPMI-8226 leukemia = system: RPMI-8226 leukemia
ACHN renal = system: ACHN renal
SR leukemia = system: SR leukemia

COc1cc(N(CCC#N)CCC#N)ccc1/C(N=Nc1ccccc1C)=N\NC(=O)c1ccc(C)cc1
TGI (CAKI-1 renal): > 100 µM | TGI (SF-268 CNS): > 100 µM | TGI (MDA-N): 58.8 µM | TGI (SK-MEL-2 melanoma): > 100 µM | TGI (OVCAR-8 ovarian): > 100 µM | TGI (DU-145 prostate): > 100 µM | TGI (UACC-62 melanoma): > 100 µM | TGI (NCI-H226 lung): > 100 µM | TGI (OVCAR-4 ovarian): > 100 µM | TGI (HCT-15 colon): > 100 µM | TGI (HCC-2998 colon): > 100 µM | TGI (HCT-116 colon): > 100 µM | TGI (M14 melanoma): > 100 µM | TGI (U251 CNS): > 100 µM | TGI (TK-10 renal): > 100 µM | TGI (MOLT-4 leukemia): > 100 µM | TGI (T-47D breast): > 100 µM | TGI (LOX IMVI melanoma): > 100 µM | TGI (SK-OV-3 ovarian): > 100 µM | TGI (CCRF-CEM leukemia): 40.3 µM | TGI (EKVX NSCLC): > 100 µM | TGI (K-562 leukemia): > 100 µM | TGI (OVCAR-3 ovarian): > 100 µM | TGI (RXF 393 renal): > 100 µM | TGI (SK-MEL-28 melanoma): > 100 µM | TGI (SK-MEL-5 melanoma): > 100 µM | TGI (UACC-257 melanoma): > 100 µM | TGI (HOP-62 NSCLC): > 100 µM | TGI (NCI-H522 lung): > 100 µM | TGI (NCI-H23 lung): > 100 µM | TGI (HT29 colon): > 100 µM | TGI (SN12C renal): > 100 µM | TGI (KM12 colon): > 100 µM | TGI (HOP-92 NSCLC): > 100 µM | TGI (MDA-MB-231 breast): > 100 µM | TGI (MDA-MB-435): > 100 µM | TGI (COLO 205 colon): > 100 µM | TGI (UO-31 renal): > 100 µM | TGI (NCI/ADR-RES ovarian): > 100 µM | TGI (SW-620 colon): > 100 µM | TGI (HS 578T breast): > 100 µM | TGI (SNB-19 CNS): > 100 µM | TGI (PC-3 prostate): > 100 µM | TGI (IGROV1 ovarian): > 100 µM | TGI (HL-60(TB) leukemia): 23 µM | TGI (NCI-H460 lung): > 100 µM | TGI (SF-295 CNS): > 100 µM | TGI (A549 NSCLC): > 100 µM | TGI (OVCAR-5 ovarian): > 100 µM | TGI (BT-549 breast): > 100 µM | TGI (MALME-3M melanoma): > 100 µM | TGI (786-0 renal): > 100 µM

O=[N+]([O-])/C(C(Cl)=C(Cl)Cl)=C(/Nc1ccccc1)SCc1ccccc1
TGI (CAKI-1 renal): 68.7 µM | TGI (SF-268 CNS): 43.4 µM | TGI (MDA-N): 33.9 µM | TGI (SK-MEL-2 melanoma): 44.7 µM | TGI (OVCAR-8 ovarian): 34.8 µM | TGI (DU-145 prostate): 59.4 µM | TGI (UACC-62 melanoma): 44.6 µM | TGI (NCI-H226 lung): 44.6 µM | TGI (OVCAR-4 ovarian): 66.8 µM | TGI (HCT-15 colon): 29.7 µM | TGI (HCC-2998 colon): 45 µM | TGI (HCT-116 colon): 30.2 µM | TGI (M14 melanoma): 30.6 µM | TGI (U251 CNS): 34.6 µM | TGI (TK-10 renal): 60.6 µM | TGI (SF-539 CNS): 38.8 µM | TGI (MOLT-4 leukemia): 37.3 µM | TGI (T-47D breast): > 100 µM | TGI (LOX IMVI melanoma): 39.1 µM | TGI (SK-OV-3 ovarian): > 100 µM | TGI (CCRF-CEM leukemia): 35.5 µM | TGI (EKVX NSCLC): 48.6 µM | TGI (K-562 leukemia): 49.9 µM | TGI (OVCAR-3 ovarian): 28.7 µM | TGI (A498 renal): 46.7 µM | TGI (RXF 393 renal): 35.5 µM | TGI (SK-MEL-28 melanoma): 39.2 µM | TGI (RPMI-8226 leukemia): 37.7 µM | TGI (SK-MEL-5 melanoma): 37 µM | TGI (UACC-257 melanoma): 39.5 µM | TGI (HOP-62 NSCLC): 36.1 µM | TGI (ACHN renal): 77.4 µM | TGI (NCI-H522 lung): 47.1 µM | TGI (NCI-H23 lung): 40.5 µM | TGI (HT29 colon): 66.1 µM | TGI (SN12C renal): 44.2 µM | TGI (KM12 colon): 32.5 µM | TGI (HOP-92 NSCLC): 60.5 µM | TGI (MDA-MB-231 breast): 36.4 µM | TGI (MDA-MB-435): 31.7 µM | TGI (SR leukemia): 52.3 µM | TGI (COLO 205 colon): 42.4 µM | TGI (UO-31 renal): 39 µM | TGI (NCI/ADR-RES ovarian): 31.1 µM | TGI (SW-620 colon): 49 µM | TGI (HS 578T breast): 75.5 µM | TGI (SNB-19 CNS): 58.4 µM | TGI (PC-3 prostate): 49.4 µM | TGI (IGROV1 ovarian): 39.9 µM | TGI (HL-60(TB) leukemia): 40.2 µM | TGI (NCI-H460 lung): 42.8 µM | TGI (SF-295 CNS): 90 µM | TGI (A549 NSCLC): 33.5 µM | TGI (OVCAR-5 ovarian): 41.2 µM | TGI (MALME-3M melanoma): 30.1 µM | TGI (786-0 renal): 31.1 µM
